For 11 compounds, IC50 results are on record in patent US20220033397A1, “PHARMACEUTICAL COMPOUNDS AND THEIR USE AS INHIBITORS OF UBIQUITIN SPECIFIC PROTEASE 19 (USP19)” (ALMAC DISCOVERY LIMITED, priority 2018, published 2022).

The test has as its target T1, Full-length USP19 (Homo sapiens, UniProt O94966).
T1 construct: Full-length USP19 was purchased from Boston Biochem (E-576); purchased Boston Biochem E-576
T1 sequence (O94966 1-1318): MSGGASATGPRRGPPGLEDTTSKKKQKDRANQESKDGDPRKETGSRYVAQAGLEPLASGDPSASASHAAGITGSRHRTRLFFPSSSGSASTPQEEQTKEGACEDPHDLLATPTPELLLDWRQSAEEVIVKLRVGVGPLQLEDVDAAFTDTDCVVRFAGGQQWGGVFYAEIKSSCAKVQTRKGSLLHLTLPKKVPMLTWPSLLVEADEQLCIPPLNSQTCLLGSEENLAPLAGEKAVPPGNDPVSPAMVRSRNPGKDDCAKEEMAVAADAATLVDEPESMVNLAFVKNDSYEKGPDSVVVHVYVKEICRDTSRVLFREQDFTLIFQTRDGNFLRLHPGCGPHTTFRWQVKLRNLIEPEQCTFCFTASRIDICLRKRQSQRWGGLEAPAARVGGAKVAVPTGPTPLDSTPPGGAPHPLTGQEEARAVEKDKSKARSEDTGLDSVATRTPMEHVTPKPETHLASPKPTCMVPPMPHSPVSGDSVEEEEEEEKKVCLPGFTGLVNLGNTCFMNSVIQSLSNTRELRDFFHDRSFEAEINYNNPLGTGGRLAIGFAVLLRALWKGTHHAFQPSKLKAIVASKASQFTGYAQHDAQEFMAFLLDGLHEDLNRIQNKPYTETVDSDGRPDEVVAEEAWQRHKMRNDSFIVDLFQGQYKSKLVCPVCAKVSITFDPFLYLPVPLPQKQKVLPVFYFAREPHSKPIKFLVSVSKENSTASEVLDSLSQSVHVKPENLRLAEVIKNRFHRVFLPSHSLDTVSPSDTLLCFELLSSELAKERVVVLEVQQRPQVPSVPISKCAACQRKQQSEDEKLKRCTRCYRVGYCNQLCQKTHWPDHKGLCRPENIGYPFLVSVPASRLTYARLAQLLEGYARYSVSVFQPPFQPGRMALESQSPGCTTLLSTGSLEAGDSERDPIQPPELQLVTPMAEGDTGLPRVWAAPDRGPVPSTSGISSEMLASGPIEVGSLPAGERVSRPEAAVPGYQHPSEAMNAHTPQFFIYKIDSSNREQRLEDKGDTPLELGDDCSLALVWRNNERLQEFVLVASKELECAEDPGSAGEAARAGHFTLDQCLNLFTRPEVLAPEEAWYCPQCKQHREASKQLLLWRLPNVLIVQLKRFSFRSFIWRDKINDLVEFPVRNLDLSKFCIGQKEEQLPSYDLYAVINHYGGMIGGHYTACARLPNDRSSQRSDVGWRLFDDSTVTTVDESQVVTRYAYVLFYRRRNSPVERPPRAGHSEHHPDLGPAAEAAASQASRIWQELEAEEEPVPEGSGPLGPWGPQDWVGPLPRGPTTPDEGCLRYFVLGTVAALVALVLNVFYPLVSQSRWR
Put plainly: USP19 fluorescence polarisation (FP) homogeneous assay with Ubiquitin-Lys-TAMRA substrate. In kind it is biochemical. Conditions: 2.5 nM USP19, 30 min pre-incubation, average of at least two duplicate experiments. The essentials: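 Full-length USP19 preincubated 30 min at RT with inhibitor (200 μM to 2 μM series, 8–18 points) before adding 500 nM Ubiquitin-Lys-TAMRA substrate.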
Turning to `C[C@H](CC1CCCCC1)C(=O)N1CCC(O)(CN2CCN(c3ccccc3)CC2=O)C2(CCCC2)C1` (stereo partly drawn) [Example 50, 1-((7-((R)-3-Cyclohexyl-2-methylpropanoyl)-10-hydroxy-7-azaspiro[4.5]decan-10-yl)methyl)-4-phenylpiperazin-2-one], the IC50 was less than 0.5 µM.
The same measure for `O=C(N1CC[C@@](O)(Cn2cnc(N3CCC(F)CC3)cc2=O)C2(CCCC2)C1)N1CCNC[C@H]1c1ccccc1` [Example 361, 6-(4-Fluoropiperidin-1-yl)-3-(((S)-10-hydroxy-7-((R)-2-phenylpiperazine-1-carbonyl)-7-aza-spiro[4.5]decan-10-yl)methyl)pyrimidin-4(3H)-one]: less than 0.5 µM.
Consider `CSc1ncc2c(=O)n(CC3(O)CCN(C(=O)[C@H](C)CC(F)(F)F)CC34CCCC4)cnc2n1` (stereo partly drawn) [Example 161, 3-((10-Hydroxy-7-((R)-4,4,4-trifluoro-2-methylbutanoyl)-7-azaspiro[4.5]decan-10-yl)methyl)-7-(methylthio)pyrimido[4,5-d]pyrimidin-4(3H)-one], for which the IC50 fell in the range of 0.5 to 5 µM.
With `O=C(NCc1ccccc1F)N1CCC(O)(Cn2cnc(-c3ccccc3)cc2=O)C2(CCCC2)C1` (centres unmarked) [Example 254, N-(2-Fluorobenzyl)-10-hydroxy-10-((6-oxo-4-phenylpyrimidin-1(6H)-yl)methyl)-7-azaspiro[4.5]decane-7-carboxamide], the IC50 was less than 0.5 µM.
The same measure for `O=C(N1CCC(C(F)(F)F)C1)N1CC[C@@](O)(Cn2cnc(-c3ccccc3)cc2=O)C2(CCCC2)C1` (stereo partly drawn) [Example 227, 3-(((10S)-10-Hydroxy-7-(3-(trifluoromethyl)pyrrolidine-1-carbonyl)-7-azaspiro[4.5]decan-10-yl)methyl)-6-phenylpyrimidin-4(3H)-one]: 0.5 to 5 µM; for `CC1CN(CC2(O)CCN(C(=O)[C@H](C)CC(F)(F)F)CC23CCCC3)C(=O)CO1` (stereo partly drawn) [Example 97, 4-((10-Hydroxy-7-((R)-4,4,4-trifluoro-2-methylbutanoyl)-7-azaspiro[4.5]decan-10-yl)methyl)-6-methylmorpholin-3-one]: 50 to 250 µM.
In the case of `C[C@H](CC1CCCCC1)C(=O)N1CCC(O)(Cn2cnc3ccccc3c2=O)C2(CCCC2)C1` (stereo partly drawn) [Example 128, 3-((7-((R)-3-Cyclohexyl-2-methylpropanoyl)-10-hydroxy-7-azaspiro[4.5]decan-10-yl)methyl)quinazolin-4(3H)-one], the IC50 is 0.5 to 5 µM.
On to `O=C(N1CC[C@@](O)(Cn2cnc(-c3ccccc3)cc2=O)C2(CCCC2)C1)N1CCNCC1c1cccs1` (stereo partly drawn) [Example 358, 3-(((10S)-10-Hy-droxy-7-(2-(thio-phen-2-yl)piperazine-1-carbonyl)-7-aza-spiro[4.5]decan-10-yl)methyl)-6-phenylpyrimidin-4(3H)-one], for which the IC50 was less than 0.5 µM.
Regarding `O=C(N1CCC(O)(Cn2cnc(-c3ccccc3)cc2=O)C2(CCCCC2)C1)N1CCOC[C@H]1c1ccccc1` (stereo partly drawn) [Example 296, 3-((5-Hydroxy-2-((R)-3-phenylmorpholine-4-carbonyl)-2-azaspiro[5.5]undecan-5-yl)methyl)-6-phenylpyrimidin-4(3H)-one], the IC50 is less than 0.5 µM.
The same measure for `C[S+]([O-])c1cn(CC2(O)CCN(C(=O)N3CCNC[C@H]3c3ccccc3)CC23CCCC3)c(=O)cc1-c1ccccc1` (stereo partly drawn) [Example 187, 1-((10-Hydroxy-7-((R)-2-phenylpiperazine-1-carbonyl)-7-azaspiro[4.5]decan-10-yl)methyl)-5-(methylsulfinyl)-4-phenylpyridin-2(1H)-one]: less than 0.5 µM; for `O=C(N1CC(C(F)(F)F)C1)N1CC[C@@](O)(Cn2cnc(-c3ccccc3)cc2=O)C2(CCCC2)C1` [Example 221, (S)-3-((10-Hydroxy-7-(3-(trifluoromethyl)azetidine-1-carbonyl)-7-azaspiro[4.5]decan-10-yl)methyl)-6-phenylpyrimidin-4(3H)-one]: 0.5 to 5 µM.
